Values of other authors in patent US10022338B2, “Honey bee mite disruptive compounds and methods of application” (SIMON FRASER UNIVERSITY, priority 2014, dated 2018).

System: olfactory sensory organ on the Varroa foreleg
Conditions: separate study

CCN(CC)C(=O)c1cccc(C)c1 [DEET, 3-methyl-N,N-diethylbenzamide]
long-term inhibition of Varroa's response to bee headspace (high dose): long-term inhibit | short-term inhibition of Varroa's response to bee headspace: not significant
